miR-22 level data for five compounds are collected here from patent publication US20210163929A1, “METHODS AND COMPOSITIONS FOR THE TREATMENT OF HEPATIC AND METABOLIC DISEASES” (The Regents of the University of California, priority 2018, published 2021).

Structures are written as SMILES.

This experiment deals with miR-22 in HCT116 cells. Kind of experiment: miR-22 induction in HCT116 cells treated with bile acids or HDAC inhibitors. Particulars: 1-day treatment, SAHA (5, butyrate 5 mM, propionate 10 mM, valerate 10 mM). The class given is cell-based, human.
Consider `CC(=O)O` [acetate], for which the miR-22 level result is “not able to induce miR-22”.

In the case of `CCC(=O)O` [propionate], the miR-22 level entry is reported as “induced miR-22”.

As for `O=C(CCCCCCC(=O)Nc1ccccc1)NO` [SAHA, suberanilohydroxamic acid], the miR-22 level entry is listed as “induced miR-22”.

For `CCCCC(=O)O` [valerate], the miR-22 level result is reported as “induced miR-22”.

`O=CO` [formate]: the miR-22 level result is listed as “not able to induce miR-22”.
